Measured values as given in US20110160249A1, “5-LIPOXYGENASE-ACTIVATING PROTEIN INHIBITOR” (priority 2008, published 2011).
Like-named read-outs stand apart in the source and are kept apart here. Marks after values point to notes of the source that are not given here.

Key:
[1] = mouse, in vivo, po, 250 mg/kg/day
Solubility vs. pH = assay type: physicochemical; details: 0.15 M aqueous sodium chloride, saline or isotonic, thermodynamic from solid, 0.15M sodium chloride (aqueous), read-out: Solubility, Concentration
Experimental: Suspensions were made up in 0.15M sodium chloride (aqueous) and the pH adjusted to the appropriate value with either diluted hydrochloric acid or sodium hydroxide, to ensure that different salt forms with different solubilities are not produced in solution. The suspension was then allowed to equilibrate for 2 h, and the pH was checked and re-adjusted if required.
The pH of the resultant solution was measured, and the solubility was calculated by HPLC-UV assay of the compound concentration in solution.

[2] = system: whole blood ionophore-stimulated leukotriene LTB4; assay: Phase I study, whole blood ionophore-stimulated LTB4; assay type: in vivo, human; details: for Emax / EC50 / EC90: Homo sapiens; for Emax: read-out: Emax (%), maximum inhibition of LTB4; for EC50: read-out: EC50 (ng/mL), concentration at which 50% inhibition was reached; for LTB4 level at t = 24 hrs. (% of baseline): oral solution
Text: Study Design: Single center, double-blind, randomized, placebo-controlled, single ascending dose followed by multiple ascending dose study.
Sample Size: (1) Single Dose Phase: eight (8) subjects (6 active, 2 placebo) per dose level; up to 5 dose levels are planned (a total of 40 subjects if all 5 dose levels are completed); and (2) Multiple Dose Phase: eight (8) subjects (6 active, 2 placebo) per dose level; up to 4 dose levels are planned (a total of 32 subjects if all 4 dose levels are completed).
Formulations: Compound 2 was supplied as an oral powder for reconstitution. Placebo solution matched. […] The placebo differed only in the absence of the active.
The following dosing cohorts were used:
Routes of Administration: All doses were administered orally with approximately 100 mL of water rinse. Subjects were fasted for at least 8 hours prior to dosing and for 2 hours after dosing. For BID dosing in the Multiple Dose Phase, when applicable, subjects were fasted for at least 2 hours prior to the second daily dose.
Plasma concentrations of Compound 1 were determined using a validated LC/MS method. Whole blood ionophore-stimulated leukotriene LTB4 and urinary LTE4 production were assayed by ELISA and mass spectrometry, respectively.
Analysis of Samples: Concentrations of Compound 1 was determined in plasma samples collected from subjects. Similarly, concentrations of LTB4 in plasma and urinary LTE4 were determined in blood and urine samples collected.

[3] = system: production of LTB4 after ionophore stimulation in washed human leukocytes; assay: LTB4 inhibition in washed human leukocytes; assay type: cell-based; details: Leukocyte, mean of 4 tests
CYP 1A2 = CYP 1A2 (Homo sapiens, UniProt P05177); assay: Extracellular Cytochrome P450 inhibition, 1A2
Experimental: Aliquots of this mixture to (89 μL) were delivered to each well of a 96-well polypropylene plate which contained an aliquot of inhibitor (1 μL). Final solvent concentrations were 1% (v/v) or less. Incubations were commenced with the addition of 10 μL β-NADPH (10 mM stock) to a final volume of 100 μL. […] Samples were centrifuged, and supernatant was transferred for LC-MS analysis.

CYP2C9 = assay: Cellular Cytochrome P450 induction, CYP2C9; details: tested at 10 μM, cryopreserved human hepatocytes
[4] = system: LTB4 in Human Whole Blood; assay: Human blood LTB4 inhibition assay; assay type: cell-based; details: mean of 8 tests
Experimental: A non-limiting example of such a human blood LTB4 inhibition assay is as follows: Blood was drawn from consenting, human volunteers into heparinized tubes and 125 μL aliquots added to wells containing 2.5 μL 50% dimethylsulfoxide (vehicle) or 2.5 μL drug in 50% dimethylsulfoxide. Samples were incubated for 15 minutes at 37° C. 2 μL calcium ionophore […] (from a 50 mM dimethylsulfoxide stock diluted just prior to the assay in Flanks balanced salt solution (Invitrogen)) to 1.25 mM) was added, solutions mixed and incubated for 30 minutes at 37° C. Samples were centrifuged at 1,000 rpm (−200×g) for 10 minutes at 4° C., plasma removed and a 1:100 dilution assayed for LTB4 concentration using ELISA (Assay Designs). Drug concentrations to achieve 50% inhibition (IC50's) of vehicle LTB4 were determined by nonlinear regression (Graphpad Prism) of % inhibition versus log drug is concentration.

LTB4 in Rat Whole Blood = assay: Rat whole blood LTB4 inhibition assay; assay type: cell-based; details: mean of 5 tests
[5] = Multiple dose part, Day 1, 10 mg
[6] = Multiple dose part, Day 1, 50 mg
[7] = Multiple dose part, Day 1, 150 mg
[8] = Multiple dose part, Day 1, 450 mg
[9] = Multiple dose part, Day 11, 10 mg
[10] = Multiple dose part, Day 11, 50 mg
[11] = Multiple dose part, Day 11, 150 mg
[12] = Multiple dose part, Day 11, 450 mg
[13] = Single dose part, Day 1, 600 mg
[14] = Single dose part, Day 1, 1000 mg

Chain of CYP 1A2 (P05177 whole entry): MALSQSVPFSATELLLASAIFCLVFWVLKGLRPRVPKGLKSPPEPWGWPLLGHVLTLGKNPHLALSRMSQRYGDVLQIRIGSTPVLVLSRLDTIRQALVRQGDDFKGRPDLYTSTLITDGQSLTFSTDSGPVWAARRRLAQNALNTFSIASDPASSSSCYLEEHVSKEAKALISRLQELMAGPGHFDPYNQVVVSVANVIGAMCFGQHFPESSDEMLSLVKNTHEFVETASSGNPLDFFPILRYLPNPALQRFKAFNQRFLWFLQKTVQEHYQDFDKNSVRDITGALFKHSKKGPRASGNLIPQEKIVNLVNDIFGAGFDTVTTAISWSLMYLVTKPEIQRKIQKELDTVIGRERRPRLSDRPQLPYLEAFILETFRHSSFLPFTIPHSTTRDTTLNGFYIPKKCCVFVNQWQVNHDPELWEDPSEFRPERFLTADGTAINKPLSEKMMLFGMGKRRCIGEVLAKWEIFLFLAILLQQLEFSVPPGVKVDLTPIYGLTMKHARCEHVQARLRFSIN

CCOc1ccc(-c2ccc(Cn3c(CC(C)(C)C(=O)[O-])c(SC(C)(C)C)c4cc(OCc5ccc(C)cn5)ccc43)cc2)cn1.[Na+] [Compound 2, sodium 3-[3-(tert-butylsulfanyl)-1-[4-(6-ethoxy-pyridin-3-yl)benzyl]-5-(5-methyl-pyridin-2-yl-methoxy)-1H-indol-2-yl]-2,2-dimethylpropionate]
necropsy, gross abnormalities [1]: no gross abnormalities
solubility at 2 h (Solubility vs. pH; pH 1.1): 26 µg/mL
solubility at 2 h (Solubility vs. pH; pH 3.8): < 0.1 µg/mL
solubility at 2 h (Solubility vs. pH; pH 6.9): 0.7 µg/mL
solubility at 2 h (Solubility vs. pH; pH 9.0): 3500 µg/mL
solubility at 2 h (Solubility vs. pH; pH 9.8): > 10000 µg/mL
solubility at 2 h (Solubility vs. pH; pH 11.2): > 10000 µg/mL
Emax ([2]; 24 h, Multiple dose part, Day 1, 10 mg): 60.8%
Emax ([2]; 24 h, Multiple dose part, Day 1, 50 mg): 89.6%
Emax ([2]; 24 h, Multiple dose part, Day 1, 150 mg): 98.5%
Emax ([2]; 24 h, Multiple dose part, Day 1, 450 mg): 97.6%
EC50 ([2]; 24 h, Multiple dose part, Day 1, Multiple dose total): 51 ng/mL
Emax ([2]; 24 h, Single dose part, Day 1, 50 mg): 87.9%
Emax ([2]; 24 h, Single dose part, Day 1, 150 mg): 98.8%
Emax ([2]; 24 h, Single dose part, Day 1, 300 mg): 102%
Emax ([2]; 24 h, Single dose part, Day 1, 600 mg): 100%
Emax ([2]; 24 h, Single dose part, Day 1, 1000 mg): 99.6%
EC50 ([2]; 24 h, Single dose part, Day 1, Single dose total): 90 ng/mL
EC90 ([2]; 24 h, read-out: EC90 (ng/mL), concentration at which 90% inhibition was reached, Multiple dose part, Day 1, Multiple dose total): 296 ng/mL
EC90 ([2]; 24 h, read-out: EC90 (ng/mL), concentration at which 90% inhibition was reached, Single dose part, Day 1, Single dose total): 342 ng/mL
Emax ([2]; 264 h, Multiple dose part, Day 11, 10 mg): 74.4%
Emax ([2]; 264 h, Multiple dose part, Day 11, 50 mg): 97.9%
Emax ([2]; 264 h, Multiple dose part, Day 11, 150 mg): 99.7%
Emax ([2]; 264 h, Multiple dose part, Day 11, 450 mg): 101%
EC50 ([2]; 264 h, Multiple dose part, Day 11, Multiple dose total): 52 ng/mL
EC90 ([2]; 264 h, read-out: EC90 (ng/mL), concentration at which 90% inhibition was reached, Multiple dose part, Day 11, Multiple dose total): 308 ng/mL
Tmax (h), time to reach Emax [2, 5]: 12.00 h
tE>90% (h), time above 90% LTB4 inhibition [2, 5]: 0.0 h
Tmax (h), time to reach Emax [2, 6]: 4.00 h
tE>50% (h), time above 50% LTB4 inhibition [2, 6]: >23.3 h
tE>90% (h), time above 90% LTB4 inhibition [2, 6]: 0.0 h
Tmax (h), time to reach Emax [2, 7]: 3.00 h
tE>50% (h), time above 50% LTB4 inhibition [2, 7]: >23.4 h
Tmax (h), time to reach Emax [2, 8]: 3.00 h
tE>50% (h), time above 50% LTB4 inhibition [2, 8]: >23.7 h
Tmax (h), time to reach Emax [2, 9]: 12.00 h
tE>90% (h), time above 90% LTB4 inhibition [2, 9]: 0.0 h
Tmax (h), time to reach Emax [2, 10]: 4.00 h
tE>90% (h), time above 90% LTB4 inhibition [2, 10]: 10.0 h
Tmax (h), time to reach Emax [2, 11]: 2.00 h
tE>50% (h), time above 50% LTB4 inhibition [2, 11]: >72.0 h
Tmax (h), time to reach Emax [2, 12]: 2.00 h
tE>50% (h), time above 50% LTB4 inhibition [2, 12]: >72.0 h
Tmax (h), time to reach Emax ([2]; Single dose part, Day 1, 50 mg): 8.00 h
tE>90% (h), time above 90% LTB4 inhibition ([2]; Single dose part, Day 1, 50 mg): 0.0 h
Tmax (h), time to reach Emax ([2]; Single dose part, Day 1, 150 mg): 6.00 h
Tmax (h), time to reach Emax ([2]; Single dose part, Day 1, 300 mg): 8.00 h
tE>50% (h), time above 50% LTB4 inhibition ([2]; Single dose part, Day 1, 300 mg, estimated): ~30^# h
Tmax (h), time to reach Emax [2, 13]: 6.00 h
tE>50% (h), time above 50% LTB4 inhibition [2, 13]: >71.7 h
Tmax (h), time to reach Emax [2, 14]: 6.00 h
tE>50% (h), time above 50% LTB4 inhibition [2, 14]: >71.7 h
LTB4 level at t = 24 hrs. (% of baseline) ([2]; single dose 50 mg): 37 ± 4.7 % of baseline
LTB4 level at t = 24 hrs. (% of baseline) ([2]; single dose 150 mg): 24 ± 4.4 % of baseline
LTB4 level at t = 24 hrs. (% of baseline) ([2]; single dose 300 mg): 23 ± 8.3 % of baseline
LTB4 level at t = 24 hrs. (% of baseline) ([2]; single dose 600 mg): 1.6 ± 0.98 % of baseline
LTB4 level at t = 24 hrs. (% of baseline) ([2]; single dose 1000 mg): 1.9 ± 0.41 % of baseline
IC50 [3]: 0.44 nM
IC50 (CYP 1A2): > 40000 nM
induction of CYP2C9 (CYP2C9): No apparent induction
IC90 [4]: 1310 nM
IC50 (LTB4 in Rat Whole Blood): 239 nM
IC90 (LTB4 in Rat Whole Blood): 1630 nM
